Test results published in patent US8933103B2, “Pyridone derivatives” (Daiichi Sankyo Company, Limited, priority 2012, dated 2015).

Target: T1, AXL (fusion protein of amino acids 464-885 of the intracellular domain of human AXL with glutathione transferase) (Homo sapiens, UniProt P30530)
T1 sequence (P30530 464-885 isoform P30530-2): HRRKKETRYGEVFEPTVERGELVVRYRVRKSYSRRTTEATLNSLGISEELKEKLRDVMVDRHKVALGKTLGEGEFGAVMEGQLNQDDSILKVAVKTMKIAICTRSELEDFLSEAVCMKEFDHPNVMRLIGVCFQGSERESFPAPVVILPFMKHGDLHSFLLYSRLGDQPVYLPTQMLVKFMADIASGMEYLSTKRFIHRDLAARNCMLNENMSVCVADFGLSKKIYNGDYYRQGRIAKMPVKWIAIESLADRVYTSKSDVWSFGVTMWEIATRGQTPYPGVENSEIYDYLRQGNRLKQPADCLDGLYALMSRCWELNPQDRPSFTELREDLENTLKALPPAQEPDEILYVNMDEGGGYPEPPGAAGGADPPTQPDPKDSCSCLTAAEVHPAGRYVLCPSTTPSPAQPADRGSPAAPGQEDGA
Assay: Cell-Free Axl Kinase Inhibitory Activity
Method: Next, the test compound was diluted with DMSO, and 1 μl of this diluted solution was added to each well.
Five microliters of this solution were added to each well to initiate a kinase reaction. The plate was incubated at 28° C. for 1.5 hours, and 40 μl of a termination buffer (100 mM HEPES (pH 7.4), 0.015% Brij-35, 40 mM EDTA, 0.1% Coating Reagent 3) was added to each well to terminate the reaction.
The substrate peptide and the phosphorylated peptide in the reaction solution were separated and quantified by EZ Reader II (Caliper Life Sciences).
IC50 was determined from inhibition data for 12 test compound concentrations by nonlinear regression (four-parameter logistic regression) using the following formula.

| SMILES | IC50 [nM] |
| --- | --- |
| COc1ncnc(N)c1-c1ccc(NC(=O)c2cn(CC(F)(F)F)cc(-c3ccc(F)cc3)c2=O)cc1 [Example 86, N-[4-(4-Amino-6-methoxypyrimidin-5-yl)phenyl]-5-(4-fluorophenyl)-4-oxo-1-(2,2,2-trifluoroethyl)-1,4-dihydropyridine-3-carboxamide] | 1 to 10 |
| Cc1cc(-c2cnc(N)c(-c3ccc(NC(=O)c4cn(CC(F)(F)F)cc(-c5ccc(F)cc5)c4=O)cc3)c2)ccn1 [Example 77, N-[4-(6-Amino-2′-methyl-3,4′-bipyridin-5-yl)phenyl]-5-(4-fluorophenyl)-4-oxo-1-(2,2,2-trifluoroethyl)-1,4-dihydropyridine-3-carboxamide] | 0.1 to 1 |
| CCn1cc(C(=O)Nc2ccc(-c3cc(-c4ccc(OC)c(OC)c4)cnc3N)cc2)c(=O)c(-c2ccc(F)cc2)c1 [Example 3, N-{4-[2-Amino-5-(3,4-dimethoxyphenyl)pyridin-3-yl]phenyl}-1-ethyl-5-(4-fluorophenyl)-4-oxo-1,4-dihydropyridine-3-carboxamide] | 0.1 to 1 |
| COc1ccc(-c2cnc(N)c(-c3ccc(NC(=O)c4cn(CC(F)(F)F)cc(-c5ccc(F)cc5)c4=O)cc3)c2)cc1O [Example 88, N-{4-[2-Amino-5-(3-hydroxy-4-methoxyphenyl)pyridin-3-yl]phenyl}-5-(4-fluorophenyl)-4-oxo-1-(2,2,2-trifluoroethyl)-1,4-dihydropyridine-3-carboxamide] | 1 to 10 |
| COc1ccnc(N)c1-c1ccc(NC(=O)c2cn(CCF)cc(-c3ccc(F)cc3)c2=O)cc1 [Example 83, N-[4-(2-Amino-4-methoxypyridin-3-yl)phenyl]-1-(2-fluoroethyl)-5-(4-fluorophenyl)-4-oxo-1,4-dihydropyridine-3-carboxamide] | 10 to 20 |
| COc1cc(-c2cnc(N)c(-c3ccc(NC(=O)c4cn(CCF)cc(-c5ccc(F)cc5)c4=O)cc3)c2)ccc1OC[C@H]1COCCO1 [Example 43, N-[4-(2-Amino-5-{4-[(2R)-1,4-dioxan-2-ylmethoxy]-3-methoxyphenyl}pyridin-3-yl)phenyl]-1-(2-fluoroethyl)-5-(4-fluorophenyl)-4-oxo-1,4-dihydropyridine-3-carboxamide] | 1 to 10 |
| Nc1ncc(-c2cnn(C[C@H]3COCCO3)c2)cc1-c1ccc(NC(=O)c2cn(CCF)cc(-c3ccccc3)c2=O)cc1F [Example 75, N-[4-(2-Amino-5-{1-[(2S)-1,4-dioxan-2-ylmethyl]-1H-pyrazol-4-yl}pyridin-3-yl)-3-fluorophenyl]-1-(2-fluoroethyl)-4-oxo-5-phenyl-1,4-dihydropyridine-3-carboxamide] | 1 to 10 |
| COc1ccc(-c2cnc(N)c(-c3ccc(NC(=O)c4cn(CC(F)(F)F)cc(-c5ccc(F)nc5)c4=O)cc3)c2)cc1OC [Example 23, N-{4-[2-Amino-5-(3,4-dimethoxyphenyl)pyridin-3-yl]phenyl}-6′-fluoro-4-oxo-1-(2,2,2-trifluoroethyl)-1,4-dihydro-3,3′-bipyridine-5-carboxamide] | 1 to 10 |
| CCOCCn1cc(C(=O)Nc2ccc(-c3cc(-c4cnn(C[C@H]5COCCO5)c4)cnc3N)cc2)c(=O)c(-c2ccc(F)cc2)c1 [Example 67, N-[4-(2-Amino-5-{1-[(2S)-1,4-dioxan-2-ylmethyl]-1H-pyrazol-4-yl}pyridin-3-yl)phenyl]-1-(2-ethoxyethyl)-5-(4-fluorophenyl)-4-oxo-1,4-dihydropyridine-3-carboxamide] | 1 to 10 |
| CCN(CC)C(=O)c1cn(Cc2ccc(F)cc2)cc(C(=O)Nc2ccc(-c3cc(-c4cnn(C[C@H]5COCCO5)c4)cnc3N)cc2)c1=O [Example 70, N′-[4-(2-Amino-5-{1-[(2S)-1,4-dioxan-2-ylmethyl]-1H-pyrazol-4-yl}pyridin-3-yl)phenyl]-N,N-diethyl-1-(4-fluorobenzyl)-4-oxo-1,4-dihydropyridine-3,5-dicarboxamide] | 1 to 10 |
| COc1ccnc(N)c1-c1ccc(NC(=O)c2cn(CC(F)(F)F)cc(-c3ccc(F)cc3)c2=O)cc1 [Example 82, N-[4-(2-Amino-4-methoxypyridin-3-yl)phenyl]-5-(4-fluorophenyl)-4-oxo-1-(2,2,2-trifluoroethyl)-1,4-dihydropyridine-3-carboxamide] | 1 to 10 |
| Cn1cc(-c2cnc(N)c(-c3ccc(NC(=O)c4cn(CC(F)F)cc(-c5ccc(F)cc5)c4=O)cc3)c2)cn1 [Example 49, N-{4-[2-Amino-5-(1-methyl-1H-pyrazol-4-yl)pyridin-3-yl]phenyl}-1-(2,2-difluoroethyl)-5-(4-fluorophenyl)-4-oxo-1,4-dihydropyridine-3-carboxamide] | 1 to 10 |

Next, values leading:

| IC50 [nM] | SMILES |
| --- | --- |
| 10 to 20 | COc1cn(Cc2ccc(F)cc2)cc(C(=O)Nc2ccc(-c3cc(-c4cnn(C)c4)cnc3N)cc2)c1=O [Example 59, N-{4-[2-Amino-5-(1-methyl-1H-pyrazol-4-yl)pyridin-3-yl]phenyl}-1-(4-fluorobenzyl)-5-methoxy-4-oxo-1,4-dihydropyridine-3-carboxamide] |
| 0.1 to 1 | COc1ccc(-c2cnc(N)c(-c3ccc(NC(=O)c4cn(CC(F)(F)F)cc(-c5ccc(C)cc5)c4=O)cc3)c2)cc1OC [Example 24, N-{4-[2-Amino-5-(3,4-dimethoxyphenyl)pyridin-3-yl]phenyl}-5-(4-methylphenyl)-4-oxo-1-(2,2,2-trifluoroethyl)-1,4-dihydropyridine-3-carboxamide] |
| 0.1 to 1 | COc1ccc(-c2cnc(N)c(-c3ccc(NC(=O)c4cn(Cc5ccc(F)cc5)cc(C(=O)N5CCCC5)c4=O)cc3)c2)cc1OC [Example 26, N-{4-[2-Amino-5-(3,4-dimethoxyphenyl)pyridin-3-yl]phenyl}-1-(4-fluorobenzyl)-4-oxo-5-(pyrrolidin-1-ylcarbonyl)-1,4-dihydropyridine-3-carboxamide] |
| 0.1 to 1 | CNC(=O)Cn1cc(C(=O)Nc2ccc(-c3cc(-c4ccc(OC)c(OC)c4)cnc3N)cc2)c(=O)c(-c2ccc(F)cc2)c1 [Example 15, N-{4-[2-Amino-5-(3,4-dimethoxyphenyl)pyridin-3-yl]phenyl}-5-(4-fluorophenyl)-1-[2-(methylamino)-2-oxoethyl]-4-oxo-1,4-dihydropyridine-3-carboxamide] |
| 0.1 to 1 | CC(=O)N1CC=C(c2cnc(N)c(-c3ccc(NC(=O)c4cn(CC(F)(F)F)cc(-c5ccc(F)cc5)c4=O)cc3)c2)CC1 [Example 80, N-[4-(1′-Acetyl-6-amino-1′,2′,3′,6′-tetrahydro-3,4′-bipyridin-5-yl)phenyl]-5-(4-fluorophenyl)-4-oxo-1-(2,2,2-trifluoroethyl)-1,4-dihydropyridine-3-carboxamide] |
| 1 to 10 | Cn1cc(-c2cnc(N)c(-c3ccc(NC(=O)c4cn(Cc5ccc(F)cc5)ccc4=O)cc3)c2)cn1 [Example 56, N-{4-[2-Amino-5-(1-methyl-1H-pyrazol-4-yl)pyridin-3-yl]phenyl}-1-(4-fluorobenzyl)-4-oxo-1,4-dihydropyridine-3-carboxamide] |
| 0.1 to 1 | Nc1ncc(-c2cnn(C[C@H]3COCCO3)c2)cc1-c1ccc(NC(=O)c2cn(Cc3ccc(F)cc3)cc(C(=O)N3CCCC3)c2=O)cc1F [Example 76, N-[4-(2-Amino-5-{1-[(2S)-1,4-dioxan-2-ylmethyl]-1H-pyrazol-4-yl}pyridin-3-yl)-3-fluorophenyl]-1-(4-fluorobenzyl)-4-oxo-5-(pyrrolidin-1-ylcarbonyl)-1,4-dihydropyridine-3-carboxamide] |
